# Data published in PubChem BioAssay AID256 (DTP/NCI, 2004).
# Values joined by “and” are separate entries in the source; they are usually repeats but may differ in a detail not shown here. Identical values can stand only once. Toxic doses and inconclusive results are not listed.
# Tested on: CD2F1 mice, L1210 leukemia ip, survival T/C
# Assay: NCI In Vivo Anticancer Drug Screen. Data for tumor model L1210 Leukemia (intraperitoneal) in CD2F1 (CDF1) mice
# Details: endpoint: mean survival time, higher = longer survival
# Summary of the method: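 Vehicle-treated tumor-bearing mice served as controls (C) for compound-treated mice (T). Reported figure is T divided by C.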
# [1] = dose: 25.0 mg/kg/injection, schedule: Q04DX002 (ip), vehicle: saline
# [2] = dose: 100.0 mg/kg/injection, schedule: Q04DX003 (ip), vehicle: saline
# [3] = dose: 200.0 mg/kg/injection, schedule: Q04DX003 (ip), vehicle: saline
# [4] = dose: 100.0 mg/kg/injection, schedule: Q01DX009 (ip), vehicle: saline with Tween-80
# [5] = dose: 100.0 mg/kg/injection, schedule: Q04DX003 (ip), vehicle: saline with Tween-80
# [6] = dose: 200.0 mg/kg/injection, schedule: Q01DX009 (ip), vehicle: saline with Tween-80
# [7] = dose: 200.0 mg/kg/injection, schedule: Q04DX003 (ip), vehicle: saline with Tween-80
# [8] = dose: 400.0 mg/kg/injection, schedule: Q04DX003 (ip), vehicle: saline with Tween-80
# [9] = dose: 12.5 mg/kg/injection, schedule: Q01DX009 (ip), vehicle: saline with Tween-80
# [10] = dose: 50.0 mg/kg/injection, schedule: Q01DX009 (ip), vehicle: Klucel (hydroxypropylcellulose) (HPC)
# [11] = dose: 100.0 mg/kg/injection, schedule: Q01DX009 (ip), vehicle: Klucel (hydroxypropylcellulose) (HPC)
# [12] = dose: 200.0 mg/kg/injection, schedule: Q01DX009 (ip), vehicle: Klucel (hydroxypropylcellulose) (HPC)
# [13] = dose: 50.0 mg/kg/injection, schedule: Q01DX009 (ip), vehicle: saline with Tween-80
# [14] = dose: 100.0 mg/kg/injection, schedule: Q01DX001 (ip), vehicle: saline
compound,measurement,setting,value
C=C(C)CS(=O)[O-].[C-]#[O+].[C-]#[O+].[Fe+6].[c-]1[c-][c-][cH-][c-]1,T/C,"dose: 6.25 mg/kg/injection, schedule: Q04DX002 (ip), vehicle: saline",97 % of control
same,T/C,"dose: 12.5 mg/kg/injection, schedule: Q04DX002 (ip), vehicle: saline",97 % of control
same,T/C,[1],97 % of control
CCC(=N\N=C(N)N)/C(C)=N\N=C(N)N,T/C,"dose: 15.0 mg/kg/injection, schedule: Q01DX009 (ip), vehicle: saline",95 % of control
same,T/C,"dose: 30.0 mg/kg/injection, schedule: Q01DX009 (ip), vehicle: saline",91 % of control
O=C1OC(=O)c2c1ccc1c(O)cccc21,T/C,"dose: 100.0 mg/kg/injection, schedule: Q01DX001 (ip), vehicle: saline with Tween-80",101 % of control
same,T/C,"dose: 200.0 mg/kg/injection, schedule: Q01DX001 (ip), vehicle: saline with Tween-80",90 % of control
same,T/C,"dose: 400.0 mg/kg/injection, schedule: Q01DX001 (ip), vehicle: saline with Tween-80",108 % of control
CCC/C=N\O,T/C,[2],110 % of control
same,T/C,[3],93 % of control
same,T/C,"dose: 400.0 mg/kg/injection, schedule: Q04DX003 (ip), vehicle: saline",100 % of control
CCOc1ccc(/C=C/[N+](=O)[O-])cc1,T/C,[4],114 % of control
same,T/C,[5],104 % of control
same,T/C,[6],89 % of control
same,T/C,[7],98 % of control
same,T/C,[8],111 % of control
O=C1CC2CC1C1C3CCC(CC3)C21 (stereo not given),T/C,"dose: 3.13 mg/kg/injection, schedule: Q01DX009 (ip), vehicle: saline with Tween-80",86 % of control
same,T/C,"dose: 6.25 mg/kg/injection, schedule: Q01DX009 (ip), vehicle: saline with Tween-80",101 % of control
same,T/C,[9],90 % of control and 98 % of control
COc1ccc(C(C#N)C(CC(=O)c2ccccc2)c2ccccc2)cc1 (stereo not given),T/C,"dose: 100.0 mg/kg/injection, schedule: Q04DX002 (ip), vehicle: saline with Tween-80",98 % of control
same,T/C,"dose: 200.0 mg/kg/injection, schedule: Q04DX002 (ip), vehicle: saline with Tween-80",91 % of control
same,T/C,"dose: 400.0 mg/kg/injection, schedule: Q04DX002 (ip), vehicle: saline with Tween-80",87 % of control
NC(=S)NN=C1CCC(=NNC(N)=S)CC1,T/C,"dose: 50.0 mg/kg/injection, schedule: Q01DX009 (ip), vehicle: other",94 % of control
same,T/C,"dose: 100.0 mg/kg/injection, schedule: Q01DX009 (ip), vehicle: other",91 % of control
same,T/C,"dose: 250.0 mg/kg/injection, schedule: Q01DX009 (ip), vehicle: other",89 % of control
O=C(N/N=C/c1ccc(Cl)cc1Cl)c1ccccc1,T/C,[10],110 % of control
same,T/C,[11],103 % of control
same,T/C,[12],86 % of control
O=C(NNc1ccccc1OCc1ccccc1)C(F)(F)F,T/C,[5],102 % of control
same,T/C,[7],103 % of control
same,T/C,[8],103 % of control
C1=CC(=C(C2CCC(Nc3ccccc3)CC2)C2CCC(Nc3ccccc3)CC2)C=CC1=Nc1ccccc1 (stereo not given),T/C,[13],103 % of control
same,T/C,[4],101 % of control
same,T/C,[2],104 % of control
same,T/C,[6],107 % of control
same,T/C,[3],104 % of control
C1=C[N]2c3c4c(ccc3=C1)=CC=C[N]4[Ga]2[c]1ccccc1,T/C,[5],118 % of control
NOCc1csc(NC(=O)Nc2ccccc2)n1,T/C,"dose: 18.8 mg/kg/injection, schedule: Q01DX001 (ip), vehicle: saline with Tween-80",110 % of control
same,T/C,"dose: 18.8 mg/kg/injection, schedule: Q04DX003 (ip), vehicle: saline with Tween-80",98 % of control
same,T/C,"dose: 37.5 mg/kg/injection, schedule: Q01DX001 (ip), vehicle: saline with Tween-80",112 % of control
same,T/C,"dose: 37.5 mg/kg/injection, schedule: Q04DX003 (ip), vehicle: saline with Tween-80",98 % of control
same,T/C,"dose: 75.0 mg/kg/injection, schedule: Q01DX001 (ip), vehicle: saline with Tween-80",96 % of control
same,T/C,"dose: 75.0 mg/kg/injection, schedule: Q04DX003 (ip), vehicle: saline with Tween-80",98 % of control
CC(=O)[CH-]C(=O)C(=O)[CH-]C(C)=O.[Cu+2],T/C,"dose: 20.0 mg/kg/injection, schedule: Q01DX001 (ip), vehicle: saline with Tween-80",96 % of control
same,T/C,"dose: 40.0 mg/kg/injection, schedule: Q01DX001 (ip), vehicle: saline with Tween-80",96 % of control
same,T/C,"dose: 80.0 mg/kg/injection, schedule: Q01DX001 (ip), vehicle: saline with Tween-80",94 % of control
Cc1ccccc1NC(=O)/C=C\C(=O)O,T/C,"dose: 20.0 mg/kg/injection, schedule: Q01DX009 (ip), vehicle: saline with Tween-80",105 % of control
same,T/C,"dose: 20.0 mg/kg/injection, schedule: Q04DX003 (ip), vehicle: saline with Tween-80",102 % of control
same,T/C,"dose: 40.0 mg/kg/injection, schedule: Q01DX009 (ip), vehicle: saline with Tween-80",104 % of control
same,T/C,"dose: 40.0 mg/kg/injection, schedule: Q04DX003 (ip), vehicle: saline with Tween-80",97 % of control
same,T/C,"dose: 80.0 mg/kg/injection, schedule: Q01DX009 (ip), vehicle: saline with Tween-80",102 % of control
same,T/C,"dose: 80.0 mg/kg/injection, schedule: Q04DX003 (ip), vehicle: saline with Tween-80",97 % of control
C=C[Si](C=C)(C=C)C=C,T/C,[14],101 % of control
same,T/C,"dose: 200.0 mg/kg/injection, schedule: Q01DX001 (ip), vehicle: saline",104 % of control
same,T/C,"dose: 400.0 mg/kg/injection, schedule: Q01DX001 (ip), vehicle: saline",107 % of control
NC(=S)N/N=C\c1nccc2c(N)cccc12,T/C,[9],124 % of control
same,T/C,"dose: 25.0 mg/kg/injection, schedule: Q01DX009 (ip), vehicle: saline with Tween-80",124 % of control
same,T/C,[13],161 % of control
same,T/C,"dose: 75.0 mg/kg/injection, schedule: Q01DX009 (ip), vehicle: saline with Tween-80",121 % of control and 124 % of control
C=C1C(=O)OC2CC/C=C\CCC12 (stereo not given),T/C,"dose: 50.0 mg/kg/injection, schedule: Q01DX009 (ip), vehicle: saline",105 % of control
same,T/C,"dose: 100.0 mg/kg/injection, schedule: Q01DX009 (ip), vehicle: saline",97 % of control
same,T/C,"dose: 200.0 mg/kg/injection, schedule: Q01DX009 (ip), vehicle: saline",102 % of control
c1ccc(C2=C(c3ccccc3)C(c3ccccc3)(c3ccccc3)c3ccccc32)cc1,T/C,[5],101 % of control
same,T/C,[7],98 % of control
same,T/C,[8],98 % of control
CCCCCCCCCCCCNC(=O)c1cc[n+](Cc2ccc(Cl)c(Cl)c2)cc1,T/C,[5],103 % of control
same,T/C,[7],96 % of control
same,T/C,[8],94 % of control
Cc1ccc(NC(=O)C2CCC(C)(C(=O)O)C2(C)C)cc1 (stereo not given),T/C,[5],96 % of control
same,T/C,[7],91 % of control
Oc1c(Cl)cc(Cl)cc1CN(Cc1cc(Cl)cc(Cl)c1O)c1ccccc1,T/C,"dose: 12.5 mg/kg/injection, schedule: Q01DX009 (ip), vehicle: Klucel (hydroxypropylcellulose) (HPC)",103 % of control
same,T/C,"dose: 25.0 mg/kg/injection, schedule: Q01DX009 (ip), vehicle: Klucel (hydroxypropylcellulose) (HPC)",102 % of control
same,T/C,[10],101 % of control
same,T/C,[11],100 % of control
same,T/C,[12],100 % of control
same,T/C,"dose: 400.0 mg/kg/injection, schedule: Q01DX009 (ip), vehicle: Klucel (hydroxypropylcellulose) (HPC)",94 % of control
COc1ccc(CNCCCC2C3CCC(C3)C2CN)cc1 (stereo not given),T/C,[5],95 % of control
same,T/C,[7],95 % of control
CCOC(=O)Cc1nnc2ncnc(N)c2n1,T/C,"dose: 100.0 mg/kg/injection, schedule: Q01DX001 (ip), vehicle: other",101 % of control
same,T/C,"dose: 200.0 mg/kg/injection, schedule: Q01DX001 (ip), vehicle: other",103 % of control
same,T/C,"dose: 400.0 mg/kg/injection, schedule: Q01DX001 (ip), vehicle: other",98 % of control
OCC(O)C(O)C(OC1OC(CO)C(O)C(O)C1O)C(O)CO (stereo not given),T/C,[13],97 % of control
same,T/C,[4],109 % of control
same,T/C,[6],106 % of control
CCOC(=O)/C=C/SCC(N)C(=O)OCC (stereo not given),T/C,[1],98 % of control
same,T/C,"dose: 50.0 mg/kg/injection, schedule: Q04DX002 (ip), vehicle: saline",94 % of control
same,T/C,[14],101 % of control
same,T/C,"dose: 100.0 mg/kg/injection, schedule: Q04DX002 (ip), vehicle: saline",96 % of control
N#CSCc1cc(=O)c(O)co1,T/C,"dose: 6.25 mg/kg/injection, schedule: Q04DX003 (ip), vehicle: saline with Tween-80",104 % of control
same,T/C,"dose: 12.5 mg/kg/injection, schedule: Q04DX003 (ip), vehicle: saline with Tween-80",94 % of control
